# Assay results reported in paper PMC9134315, “Systemic Administration of a Brain Permeable Cdk5 Inhibitor Alters Neurobehavior” (Frontiers in Pharmacology, 2022).
# Columns and labels:
# [1] = system: C57BL/6 mice; assay: Tail suspension test; type: in vivo, mouse; settings: 50 mg/kg, 6 h after injection
# Method: The tail suspension test was conducted as previously described ([Plattner et al., 2015]). The mice were suspended by their tails for a total duration of 6 min and video-recorded. Post-hoc blind experimentalists quantified the duration and latency of immobility for each randomized video. The average quantitative determents of each observer were averaged to generate the final analytic values of motion.
# Next, we tested the effects of 25–106 on mouse performance in the tail-suspension test to measure depressive-like phenotypes in mice ([Cryan et al., 2005]; [Can et al., 2012]). […] Thus, 25–106 modulated several neurobehavioral behaviors that have previously been linked to Cdk5.
# [2] = target: T1, Cdk5 (Mus musculus, UniProt P49615); assay: In vivo Cdk5 inhibition after I.V. injection, immunoblot of striatal phospho-Ser549 synapsin I; settings: for phospho-Ser549 synapsin I levels in the striatum: 50 mg/kg I.V.
# T1 construct: from tissue; host or cells: striatum of wild-type C57BL/6 mice (acute slices, or lysates after I.V. dosing)
# T1 sequence (P49615 whole entry): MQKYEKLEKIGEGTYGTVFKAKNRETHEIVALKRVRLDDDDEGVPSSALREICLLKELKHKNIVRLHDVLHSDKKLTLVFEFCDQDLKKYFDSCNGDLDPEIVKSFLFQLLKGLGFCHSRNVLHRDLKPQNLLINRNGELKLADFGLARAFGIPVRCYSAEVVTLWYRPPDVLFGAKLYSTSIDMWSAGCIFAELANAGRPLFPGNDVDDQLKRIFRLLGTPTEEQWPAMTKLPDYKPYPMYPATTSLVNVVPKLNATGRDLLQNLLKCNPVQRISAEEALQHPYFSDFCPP
# T1 sequence (P61809 2-307 partner limits assumed): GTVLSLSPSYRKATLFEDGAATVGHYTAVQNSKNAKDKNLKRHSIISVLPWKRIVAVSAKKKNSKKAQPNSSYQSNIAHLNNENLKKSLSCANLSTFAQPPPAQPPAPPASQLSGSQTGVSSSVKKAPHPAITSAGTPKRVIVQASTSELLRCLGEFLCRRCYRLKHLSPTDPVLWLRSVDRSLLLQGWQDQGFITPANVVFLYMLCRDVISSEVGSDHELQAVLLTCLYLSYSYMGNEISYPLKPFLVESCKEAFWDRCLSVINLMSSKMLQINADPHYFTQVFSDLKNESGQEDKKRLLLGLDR
# Method: The wild-type group housed male C57BL/6 mice 10–12 weeks of age were used for all in vivo, ex vivo, and behavioral studies. This age range was selected to be consistent with previous studies of conditional Cdk5 knockout mice ([Plattner et al., 2015]). 25–106 was administered in a 20-fold dose range intravenously (I.V.) at 10, 50, 100, and 200 mg/kg for pharmacokinetic studies. This delivery mode was used as I.V. injections to avoid first-pass drug metabolism observed using other injection methods ([Pond and Tozer, 1984]). […] All animal experiments were performed under approved protocols by the University of Alabama at Birmingham (UAB) Institutional Animal Care and Use Committees and in accordance with the guidelines of the Animal Welfare Act and the Guide for the Care and Use of Laboratory Animals.
# (§1) Immunoblotting was performed as previously described ([Umfress et al., 2021]). Mouse brains were rapidly dissected in an ice-cold solution of 50 mM NaF/PBS. The regions of interest were further dissected out and rapidly snap-frozen in dry ice. The frozen tissue was homogenized in boiling lysis buffer (1% SDS, 50 mM NaF) and sonicated with several three to four pulses at 40 dB. The samples were subsequently denatured at 90°C for 5 min. Protein concentration was determined by the BCA assay, and homogenates were diluted in 4x sample buffer, separated by SDS-PAGE, and transferred to 0.45-µm nitrocellulose membranes, blocked with 5% milk solution (1 h), and probed with primary antibodies (overnight). The following antibodies were used in the study: phospho-Ser549 synapsin I (Phosphosolutions), total synapsin I (Phosphosolutions), actin (Invitrogen), phospho-Ser1116 (in-house) ([Plattner et al., 2014]), and total NR2B (Phosphosolutions), phospho-Thr75, and total DARPP-32 (Cell Signaling Technology). Visualization was performed using the Licor CLX membrane scanner and Licor secondary antibodies.
# Each of the four compounds tested in brain slices was further screened for their ability to penetrate the blood–brain barrier (BBB) and inhibit Cdk5-dependent activity in vivo. For these studies, cohorts of mice were treated with each compound via I.V. injection (50 mg/kg), and brain striatal lysates from various time points were subjected to quantitative immunoblot analysis for phosho-Ser549 Synapsin I levels. Three compounds, 20–107, 20–132, and 20–143, had no effect on Cdk5 activity compared to that of vehicle alone (data not shown). […] Moreover, this effect persisted even 24 h after dosing.
# [3] = target: Cdk9/CyclinT1 (Homo sapiens, UniProt P50750); assay: In vitro dose-response kinase inhibition assay; type: biochemical; settings: 30 min, ATP 30 μM
# Sequence of Cdk9/CyclinT1 (P50750 whole entry, species assumed): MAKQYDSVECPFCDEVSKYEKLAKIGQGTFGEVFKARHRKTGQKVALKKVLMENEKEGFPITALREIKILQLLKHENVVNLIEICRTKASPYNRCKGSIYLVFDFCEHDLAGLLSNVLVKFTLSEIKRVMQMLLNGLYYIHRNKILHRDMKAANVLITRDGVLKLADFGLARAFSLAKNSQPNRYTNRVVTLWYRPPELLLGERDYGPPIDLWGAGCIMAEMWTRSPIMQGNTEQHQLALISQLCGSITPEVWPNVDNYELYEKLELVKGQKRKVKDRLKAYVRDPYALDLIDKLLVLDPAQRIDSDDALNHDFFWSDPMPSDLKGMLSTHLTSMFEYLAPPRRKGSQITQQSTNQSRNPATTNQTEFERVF
# Sequence of Cdk9/CyclinT1 (O60563 whole entry partner, species assumed): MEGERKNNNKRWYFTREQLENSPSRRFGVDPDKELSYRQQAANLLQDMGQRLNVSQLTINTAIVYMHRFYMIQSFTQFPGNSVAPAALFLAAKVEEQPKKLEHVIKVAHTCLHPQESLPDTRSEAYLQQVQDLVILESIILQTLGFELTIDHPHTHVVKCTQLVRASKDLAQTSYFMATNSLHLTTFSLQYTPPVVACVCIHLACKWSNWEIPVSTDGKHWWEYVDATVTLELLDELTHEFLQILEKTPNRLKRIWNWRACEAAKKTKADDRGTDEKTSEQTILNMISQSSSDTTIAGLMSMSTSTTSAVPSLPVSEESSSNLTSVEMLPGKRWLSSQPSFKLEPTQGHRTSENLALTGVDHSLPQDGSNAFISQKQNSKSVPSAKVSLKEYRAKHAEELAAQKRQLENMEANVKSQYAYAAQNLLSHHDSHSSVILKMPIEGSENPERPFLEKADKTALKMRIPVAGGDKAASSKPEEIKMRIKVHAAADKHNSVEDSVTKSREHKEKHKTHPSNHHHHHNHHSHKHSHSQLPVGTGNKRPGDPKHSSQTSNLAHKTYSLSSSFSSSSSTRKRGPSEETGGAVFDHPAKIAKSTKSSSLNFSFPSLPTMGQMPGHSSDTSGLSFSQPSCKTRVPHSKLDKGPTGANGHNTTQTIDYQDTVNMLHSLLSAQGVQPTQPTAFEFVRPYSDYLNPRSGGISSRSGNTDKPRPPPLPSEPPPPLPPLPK
# Method: (§2) In vitro phosphorylation reactions were conducted as dose-response kinase inhibition assays with three highly homologous CDKs, namely, Cdk2/CyclinE (1.5 nM), CDK5/p25 (0.35 nM), and Cdk9/CyclinT1 (9 nM). Briefly, the abovementioned kinases were incubated with ATP (30 μM), the corresponding substrate (20 μM), and an increasing concentration of 25–106 (0–5 μM) for 30 min.
# [4] = target: Cdk2/CyclinE (Homo sapiens, UniProt P24941); assay: In vitro dose-response kinase inhibition assay; type: biochemical
# Method: as §2
# [5] = target: CDK5/p25 (Homo sapiens, UniProt Q00535); assay: In vitro dose-response kinase inhibition assay; type: biochemical
# Sequence of CDK5/p25 (Q00535 whole entry, species assumed): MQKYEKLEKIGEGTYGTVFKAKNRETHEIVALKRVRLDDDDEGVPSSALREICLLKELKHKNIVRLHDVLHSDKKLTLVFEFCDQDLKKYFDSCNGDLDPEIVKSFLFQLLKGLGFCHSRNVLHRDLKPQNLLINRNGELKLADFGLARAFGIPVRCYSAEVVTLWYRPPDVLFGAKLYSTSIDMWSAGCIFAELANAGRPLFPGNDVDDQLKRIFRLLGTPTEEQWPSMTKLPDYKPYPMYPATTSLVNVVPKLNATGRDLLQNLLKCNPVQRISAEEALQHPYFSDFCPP
# Sequence of CDK5/p25 (Q15078 99-307 partner limits assumed, species assumed): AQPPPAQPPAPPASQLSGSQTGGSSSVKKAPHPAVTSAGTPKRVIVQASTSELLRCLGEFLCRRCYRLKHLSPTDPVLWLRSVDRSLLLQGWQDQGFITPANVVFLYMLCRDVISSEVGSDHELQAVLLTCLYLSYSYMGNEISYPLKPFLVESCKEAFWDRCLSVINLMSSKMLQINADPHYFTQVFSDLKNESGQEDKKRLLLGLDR
# Method: as §2
# [6] = target: T1, Cdk5; assay: Ex vivo acute striatal brain slice pharmacology, immunoblot of phospho-Thr75 DARPP-32 and phospho-Ser1116 NR2B; type: cell-based; settings: acute striatal slices, 1 h treatment, 0-10 µM; read-out: IC50, Cdk5-dependent phosphorylation of DARPP-32 and NR2B
# Method: Brain slice pharmacology was performed as described ([Nishi et al., 2000]). Briefly, the mice were decapitated, and the brains were rapidly dissected and submerged in ice-cold normal Kreb’s solution (124 mM NaCl, 4 mM KCl, 26 mM NaHCO3, 1.25 mM KH2PO4, 1.5 mM MgSO4, 10 mM D-glucose, and 1.5 mM CaCl2). The brains were subsequently sectioned into normal Kreb’s solution at 350 µ thickness. The brain slices were transferred to a 30°C solution of normal Kreb’s containing 10 µM deaminase for a 1-h recovery period. The sections were then incubated in normal Kreb’s solution with and without the indicated compounds across the dose and time ranges indicated. The sections were rapidly snap-frozen in dry ice to terminate treatment regimes.
# as §1
# In order to assess the functional inhibition of Cdk5 in intact brain tissue by the four compounds summarized in Figure 1, acutely prepared striatal slices were treated in a dose-dependent manner (0, 0.25, 0.5, 1, 5, and 10 µM) with each inhibitor for 1 h, and Cdk5 activity was assessed via immunoblotting the phosphorylation of established Cdk5 sites, phospho-Thr75 DARPP-32 and phospho-Ser1116 NR2B ([Bibb et al., 1999]; [Plattner et al., 2014]).
smiles,measurement,setting,value
"COc1cc(CC(=O)Nc2cc(C3CCC3)[nH]n2)cc(OC)c1OC [25–106, N-(5-cyclobutyl-1H-pyrazol-3-yl)-2-(3,4,5-trimethoxyphenyl)acetamide]",latency to immobility vs. vehicle,[1],increased latency
same,total immobility time vs. vehicle,[1],reduction in total immobility time
same,phospho-Ser549 synapsin I levels in the striatum,[2]; 2 h after injection,significantly reduced
same,phospho-Ser549 synapsin I levels in the striatum,[2]; 24 h after dosing,persisted
same,Cdk5-dependent phosphorylation in brain,[2]; 1 h post injection,remained unchanged
same,"striatal phospho-Ser549 synapsin I levels, dose-response","[2]; 24 h post injection, 10, 50, 100 and 200 mg/kg I.V., approximately equal efficacy",significant reduction
same,IC50,[3]; read-out: IC50 CDK9/Cyclin T1,5.71 µM
same,Ki,[3]; read-out: Ki CDK9/Cyclin T1,3.43 µM
same,IC50,"[4]; 30 min, ATP 30 μM, read-out: IC50 CDK2/Cyclin E",0.149 µM
same,Ki,"[4]; 30 min, ATP 30 μM, read-out: Ki CDK2/Cyclin E",0.089 µM
same,selectivity for Cdk2 than Cdk9,[4]; in vitro kinase assay,greater than 30 fold
same,IC50,"[5]; 30 min, ATP 30 μM, read-out: IC50 CDK5/P35",0.178 µM
same,Ki,"[5]; 30 min, ATP 30 μM, read-out: Ki CDK5/P35",0.107 µM
same,selectivity for Cdk5 than Cdk9,[5]; in vitro kinase assay,greater than 30 fold
same,IC50,[6],0.5 to 1 µM
